# Source: EPA's ToxValDB 9.5 (doi:10.2903/j.efsa.2009.1354)
# Where “and” joins values, the source holds several entries; their conditions need not be identical. Equal entries are not always repeated.
# What was measured:
# [1] = test system: Phasianus sp.; details: oral, mortality; for LD50: acute, unspecified
# [2] = test system: Colinus virginianus; details: for LC50 / LD50: acute, oral, mortality; for LC50: diet
# [3] = test system: Rattus norvegicus
# [4] = test system: Cucumis sativus; details: acute; duration: 21 days; biomass
# [5] = test system: Hypoaspis aculeifer; details: chronic/long-term; duration: 16 days; reproduction
# [6] = test system: Oncorhynchus mykiss; details: chronic/long-term; duration: 14 days; growth
# [7] = test system: Anas platyrhynchos; details: for LD50: acute, unspecified; for LD50 / LC50: oral, mortality; for LC50: short-term, feed
# [8] = test system: Coturnix japonica; details: acute, oral, mortality
# [9] = test system: Lepomis macrochirus; details: acute; duration: 96 hours; mortality
# [10] = test system: Oryctolagus sp.; details: acute; oral; mortality
# [11] = test system: Folsomia candida; details: chronic/long-term; duration: 28 days
# [12] = test system: Aphidius rhopalosiphi; details: acute; duration: 2 days; mortality
# [13] = test system: Daphnia magna; details: chronic/long-term; duration: 21 days; reproduction
# [14] = test system: Apis mellifera; details: acute; duration: 48 hours; dermal; mortality
# [15] = test system: Anas platyrhynchos; assay: LC10; higher = less toxic; details: short-term; duration: 14 days; oral; feed; mortality
smiles,measurement,setting,value
CCCCN(CCCC)SN(C)C(=O)Oc1cccc2c1OC(C)(C)C2 [Carbosulfan],LD50,[1]; F,6.2 mg/kg-day
same,LD50,[1]; M,4 mg/kg-day
same,LD50,[1],20 mg/kg-day
same,LC50,"[1]; short-term, feed",567 mg/kg-day
same,LC50,[2]; duration: 5 days,114 mg/kg-day
same,LC50,[2]; duration: 7 days,20.8 mg/kg-day
same,LC50,[2]; duration: 14 days,15.8 mg/kg-day
same,LD50,[2]; M/F,8 mg/kg-day
same,LC50,[2],239 mg/kg-day
same,LD50,[2],82 mg/kg-day
same,NOEL,[2]; reproduction developmental,10.8 mg/kg-day
same,NOAEL,"[3]; acute, clinical chemistry",0.5 mg/kg-day
same,LD50,"[3]; acute, oral, mortality",< 5.6 mg/kg-day
same,NOAEL,[3]; chronic,0.1 mg/kg-day
same,NOAEL,"[3]; reproduction developmental, reproduction",1.2 mg/kg-day
same,LEL,[4],1500 g/ha
same,NOEC,[5],20 mg/kg
same,NOEC,[6],0.004 mg/L
same,LD50,[7]; F,0.86 mg/kg-day
same,LD50,[7]; M,0.71 mg/kg-day
same,NOEL,[7]; reproductive,2.5 mg/kg-day
same,LC50,[7]; duration: 5 days,10 mg/kg-day and 17 mg/kg-day
same,LC50,[7]; duration: 14 days,1.6 mg/kg-day
same,LC50,[7],3.99 mg/kg-day
same,LD50,[8]; F,3.5 mg/kg-day
same,LD50,[8]; M,4.9 mg/kg-day
same,LC50,[9],0.015 µg/mL
same,LD50,[10],42.7 mg/kg-day
same,NOEC,[11],0.3 mg/kg
same,LEL,[12],120 g/ha
same,NOEC,[13],0.0032 mg/L
same,LD50,[14],0.18 µg/piece
same,LC10,[15],0.64 mg/kg-day
